Where a name gives a salt, the structure may show the parent alone.
Legend:
YAP/TAZ [1] = experiment: YAP/TAZ nuclear localization in IPF patient-derived lung fibroblasts treated with dopaminergic agonists; format: cell-based, human; conditions: 10 μM, 2 hours
Description: IPF patient-derived lung fibroblasts cells treated 2 hours prior to fixation with diverse dopaminergic agonists (10 μM). N=4 different patient samples. % nuclear localization of YAP/TAZ was determined using automated imaging software. Scale bar represents 100 μm.
(§1) Media was then exchanged for the indicated conditions for each experiment. […] Cells or tissue sections were incubated overnight with mouse monoclonal antibody against αSMA (Sigma-Aldrich F3777), and/or a rabbit monoclonal antibody against YAP/TAZ (Cell Signaling D24E4) diluted 1:200 in PBS with 1% BSA. Cells were then washed and exposed to flourescence-conjugated secondary antibodies (Invitrogen) diluted 1:1000 and DAPI (Thermo Fisher Scientific). Images were taken with a Cytation5 (BioTek) microscope. For scoring αSMA positive cells (FIG. 12), an observer blinded to the treatment conditions counted αSMA-positive cells using a visual threshold for bright fibrous staining; a minimum of 200 cells was counted for each condition. YAP/TAZ localization was quantified (FIGS. 6-10, 24-26, and 29-30) using Gen5 (Biotek) software. Images were taken at 4× magnification of both DAPI and YAP/TAZ staining. […] Quantification of double positive (YAP/TAZ and αSMA) cells from lung tissue sections (FIG. 17-21) was performed similarly; however separate thresholds were established for both YAP/TAZ and αSMA. A minimum of 4000 cells was quantified for each mouse.

αSMA = αSMA intensity (fibroblast activation) in IPF patient-derived lung fibroblasts + TGFβ, dopaminergic agonist library; format: cell-based, human; conditions: 1 μM + TGFβ; for αSMA intensity (% of DMSO control): 72 hours
Description: as §1

CTGF, COL1A1, ACTA2, FN1 = experiment: Profibrotic / matrix remodeling gene expression by qPCR in fibroblasts; format: cell-based, human; conditions: human dermal fibroblasts, 24 hours +/− 2 ng/mL TGFβ
Description: Genes which encode Connective tissue growth factor (CTGF), Collagen I (COL1A1), αSMA (ACTA2), and Fibronectin (FN1) are reduced by 24 hour treatment with DHX (10 μM), +/−SCH 39166 (3 μM). N=3 (****p<0.0001, ***p<0.001, *p<0.05 vs. 0.1% DMSO vehicle control)
IPF patient-derived fibroblasts cultured in media containing 0.1% FBS were stimulated for 24 hours with 2 ng/mL TGFβ and 10 μM DHX prior to RNA isolation. Genes which encode for ECM crosslinking: transglutaminase 2 (TGM2), lysyl oxidase and lysyl oxidase-like enzymes (LOX and LOXL1-4), ECM degradation: uPA (PLAU), tPa (PLAT), cathepsin K (CTSK), and matrix metalloprotease-14 (MMP14) and ECM protease inhibitors: metalloprotease inhibitor 3 (TIMP3), and plasminogen activator inhibitor 1 (SERPINE1) were measured. N=3. (****p<0.0001, ***p<0.001, **p<0.01, *p<0.05 vs. 0.1% DMSO vehicle control non-TGFβ treated), (++++p<0.0001, ++p<0.01, +p<0.05 vs. 0.10% DMSO vehicle control TGFβ treated).
For all other in vitro experiments, cells were treated as indicated prior to RNA isolation using RNeasy Plus Mini Kit (Qiagen) according to manufacturer's instructions. Isolated RNA (250 ng) was then used to synthesize cDNA using SuperScript VILO (Invitrogen). Quantitative PCR was performed using FastStart Essential DNA Green Master (Roche) and analyzed using a LightCycler 96 (Roche). Data are expressed as a fold change by ΔΔCt relative to GAPDH. For in vivo experiments, tissue was immediately frozen, and stored at −80° C. RNA isolation, cDNA synthesis, and qPCR analysis were performed as above.

D1 receptor = conditions: cited from earlier work
YAP/TAZ [2] = experiment: YAP/TAZ nuclear localization in IMR-90 and other fibroblasts / mesenchymal cells (immunofluorescence); format: cell-based, human
Description: Selective agonists of dopamine receptor D1 with varying efficacy inhibit YAP/TAZ nuclear localization; this effect can be overcome by treatment with a DRD1 receptor antagonist (SCH 39166, 3 μM), (Dihydrexidine, 10 μM). IMR-90 cells treated 2 hours prior to fixation. N=4 (****p<0.0001 vs. 0.10% DMSO vehicle control). Scale bar represents 100 μm.
In each case DHX treatment (10 μM) can reverse this effect on YAP/TAZ. IMR-90 cells plated densely onto plastic cell culture plates for 24 hours in media containing 0.1% FBS, treated for 2 hours prior to fixation. N=4 (****p<0.0001 vs. 0.1% DMSO vehicle control), (++++p<0.0001 vs. the respective stimulated agonist ET-1, LPA, or 5-HT). Scale bar represents 100 μm.
Mesenchymal cells derived from lung (IMR-90 and IPF-FBs) hepatic stellate cells (HSC), human adult cardiac fibroblasts, (HACF) and human dermal fibroblasts (HDF) were plated densely (Confluent) or sparsely (Control and all remaining conditions) onto plastic cell culture plates for 24 hours in media containing 0.10% FBS, treated for 2 hours with Rho kinase inhibitor Y27632, adenylate cyclase activator forskolin and DHX. N=4, Cells that were positive for nuclear YAP/TAZ were quantified by automated image analysis.
Immunofluorescence Microscopy: Cells were plated into 96 well plates (Corning 3603) in their specific growth media and allowed to attach (8 hours). Media was then exchanged for the indicated conditions for each experiment. Cells were fixed in 3.7% formalin (Sigma-Aldrich), permeabilized in 0.25% Triton X-100 (Sigma-Aldrich) and then blocked with 1% BSA for 1 h. Cells or tissue sections were incubated overnight with mouse monoclonal antibody against αSMA (Sigma-Aldrich F3777), and/or a rabbit monoclonal antibody against YAP/TAZ (Cell Signaling D24E4) diluted 1:200 in PBS with 1% BSA. Cells were then washed and exposed to flourescence-conjugated secondary antibodies (Invitrogen) diluted 1:1000 and DAPI (Thermo Fisher Scientific). Images were taken with a Cytation5 (BioTek) microscope. For scoring αSMA positive cells (FIG. 12), an observer blinded to the treatment conditions counted αSMA-positive cells using a visual threshold for bright fibrous staining; a minimum of 200 cells was counted for each condition. YAP/TAZ localization was quantified (FIGS. 6-10, 24-26, and 29-30) using Gen5 (Biotek) software. Images were taken at 4× magnification of both DAPI and YAP/TAZ staining. […] Quantification of double positive (YAP/TAZ and αSMA) cells from lung tissue sections (FIG. 17-21) was performed similarly; however separate thresholds were established for both YAP/TAZ and αSMA. A minimum of 4000 cells was quantified for each mouse.

Row | Compound | Nuclear localization (% of total cells) (YAP/TAZ [1]; IPF-1 patient fibroblasts) | Nuclear localization (% of total cells) (YAP/TAZ [1]; IPF-2 patient fibroblasts) | Nuclear localization (% of total cells) (YAP/TAZ [1]; IPF-3 patient fibroblasts) | Nuclear localization (% of total cells) (YAP/TAZ [1]; IPF-4 patient fibroblasts) | αSMA intensity (% of DMSO control) (αSMA; IPF-1 patient fibroblasts) | αSMA intensity (% of DMSO control) (αSMA; IPF-2 patient fibroblasts) | αSMA intensity (% of DMSO control) (αSMA; IPF-3 patient fibroblasts) | αSMA intensity (% of DMSO control) (αSMA; IPF-4 patient fibroblasts) | profibrotic gene expression in human dermal fibroblasts (CTGF, COL1A1, ACTA2, FN1) | efficacy at elevating cAMP (D1 receptor) (D1 receptor) | potency of inhibition of YAP/TAZ nuclear localization, normal vs IPF lung fibroblasts (YAP/TAZ [2]; normal lung fibroblasts vs those from a patient with IPF) | activity at 1 µM (αSMA; Homo sapiens, SMA, 72 h, IPF-3 patient fibroblasts, read-out: αSMA intensity (% of DMSO control)) | YAP/TAZ nuclear localization (YAP/TAZ [2]; fibroblasts / mesenchymal cells on plastic, 2 hours)
1 | Cl.NC[C@@H]1O[C@H](c2ccccc2)Cc2c1ccc(O)c2O [A 68930•HCl, A 68930] | 33.13 % of total cells | 30.59 % of total cells | 26.82 % of total cells | 10.26 % of total cells | 12.4 % of DMSO control | 8.111 % of DMSO control | 3.245 % of DMSO control | 7.35 % of DMSO control | blocks profibrotic gene expression | lacks full efficacy to elevate cAMP | – | – | –
2 | Cc1cccc(C(=O)NCN2CCN(c3ccccc3C#N)CC2)c1.O=C(O)/C=C\C(=O)O [PD 168077 maleate, PD 168077] | 67.08 % of total cells | 42.44 % of total cells | 63.68 % of total cells | 68.4 % of total cells | 75.27 % of DMSO control | 56.15 % of DMSO control | 75.77 % of DMSO control | 66.5 % of DMSO control | – | – | – | – | –
3 | CCCCC[C@H](O)/C=C/[C@H]1[C@H](O)CC(=O)[C@@H]1C/C=C\CCCC(=O)O [PGE2, prostaglandin E2] | – | – | – | – | – | – | – | – | – | – | reduced potency | – | –
4 | Br.C=CCN1CCc2c(cc(O)c(O)c2Br)[C@@H](c2ccccc2)C1 [R(+)-6-BROMO-APB•HBr, R(+)-6-BROMO-APB] | 28.37 % of total cells | 38 % of total cells | 36 % of total cells | 25.65 % of total cells | 11.25 % of DMSO control | 2.507 % of DMSO control | 0.8506 % of DMSO control | 22.82 % of DMSO control | – | – | – | – | –
5 | Br.CCCN1CCc2cc(O)cc3c2[C@H]1Cc1ccc(O)c(O)c1-3 [R(−)-2,10,11-Trihydroxy-N-propyl-noraporphine] | 32.87 % of total cells | 35.25 % of total cells | 37.7 % of total cells | 25.36 % of total cells | 4.895 % of DMSO control | 8.436 % of DMSO control | 2.988 % of DMSO control | 25.61 % of DMSO control | – | – | – | – | –
6 | COc1ccc2c(c1O)-c1cc(O)cc3c1[C@@H](C2)N(C)CC3.Cl [R(−)-2,11-dihydroxy-10-methoxyapomorphine] | 85.18 % of total cells | 74.67 % of total cells | 80.73 % of total cells | 80.45 % of total cells | 91.84 % of DMSO control | 92.8 % of DMSO control | 81.85 % of DMSO control | 85.61 % of DMSO control | – | – | – | – | –
7 | CCCN(CCC)CCc1cccc2c1CC(=O)N2 [Ropinirole HCl, Ropinirole] | 69.6036 % of total cells | 58.68 % of total cells | 64.66 % of total cells | 65.7 % of total cells | – | – | – | – | – | – | – | 79% | –
8 | Oc1cc2c(c(Cl)c1O)CCNCC2c1ccccc1 (stereo not shown) [SKF-81297] | – | – | – | – | – | – | – | – | – | – | – | – | reduced nuclear localization of YAP/TAZ
9 | Oc1ccc2c(c1O)Cc1cccc3c1[C@H]2CNC3 [dinapsoline] | – | – | – | – | – | – | – | – | – | full magnitude cAMP response | – | – | –
10 | Oc1ccc2c(c1O)Oc1cccc3c1C2CNC3 (stereo not shown) [dinoxyline] | – | – | – | – | – | – | – | – | – | full magnitude cAMP response | – | – | –
11 | R(−)-2,10,11-Trihydroxyaporphine [R(−)-2,10,11-Trihydroxyaporphine•HBr] | 13.71 % of total cells | 22.15 % of total cells | 24.15 % of total cells | 17.75 % of total cells | 2.888 % of DMSO control | 1.698 % of DMSO control | 7.646 % of DMSO control | 15.9942 % of DMSO control | – | – | – | – | –
12 | R(−)-Propylnorapomorphine [R(−)-Propylnorapomorphine•HCl] | 28.35 % of total cells | 26.71 % of total cells | 42.74 % of total cells | 29.03 % of total cells | 5.081 % of DMSO control | 1.879 % of DMSO control | 5.561 % of DMSO control | 19.96 % of DMSO control | – | – | – | – | –

— US12264163B2, “Compounds and methods for treating fibrotic pathologies” (Mayo Foundation for Medical Education and Research, priority 2019, dated 2025)
